Experimental data taken from patent US9586931B2 (Merck Sharp & Dohme Corp., priority 2012, dated 2017).
Values joined by “and” are separate entries in the source; they are usually repeats but may differ in a detail not shown here. Identical values can stand only once.

What follows are compounds tested against T1, recombinant human GST-Syk (Homo sapiens, UniProt P43405) (assay: Homogeneous Time-Resolved Fluorescence (HTRF) assay for the recombinant human Syk enzyme). Details: recombinant human GST-Syk 5 pM, ATP 25 μM, 10-dose titration 10 μM to 0.508 nM; read-out: rhSYK Activity IC50.
T1 construct: purchased Carna Biosciences 08-176
Type: biochemical
Summary of the method: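 Detection used time-resolved fluorescence 30 min after adding a quench mix (40 mM EDTA, 15 mM Tris pH 7.5, 0.01% Tween 20) containing 2 nM Europium anti-pTyr antibody and 70 nM streptavidin-APC. This followed 45 min of room-temperature peptide phosphorylation by recombinant GST-tagged human Syk.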

Row | SMILES | IC50
1 | Cc1cc(Nc2cc(C(F)F)ccn2)nc(-c2cn(CC3OC(=O)NC3C)nn2)c1 (single isomer, unassigned) [Example 7.14, 5-((4-(6-((4-(difluoromethyl)pyridin-2-yl)amino)-4-methylpyridin-2-yl)-1H-1,2,3-triazol-1-yl)methyl)-4-methyloxazolidin-2-one] | 1.6 nM
2 | Cc1cc(Nc2cc(C(F)(F)F)ccn2)nc(-c2cn(C3C=CCCCC3)nn2)c1 (stereo not drawn) [Example 9.2, 6-(1-cyclohept-2-en-1-yl-1H-1,2,3-triazol-4-yl)-4-methyl-N-[4-(trifluoromethyl)-pyridin-2-yl]pyridin-2-amine] | 54 nM
3 | Cc1cc(Nc2cc(C(F)(F)F)ccn2)nc(-c2cn(C[C@H](O)CO)nn2)c1 [Example 5.7, (2S)-3-[4-(4-methyl-6-{[4-(trifluoromethyl)pyridin-2-yl]amino}pyridin-2-yl)-1H-1,2,3-triazol-1-yl]propane-1,2-diol] | 7.3 nM and 3.4 nM
4 | Cc1cc(Nc2cc(C(F)(F)F)ccn2)nc(-c2cn(CC3CCCCO3)nn2)c1 (racemic) [Example 5.4, 4-methyl-6-[1-(tetrahydro-2H-pyran-2-ylmethyl)-1H-1,2,3-triazol-4-yl]-N-[4-(trifluoromethyl)pyridin-2-yl]pyridin-2-amine] | 63.5 nM
5 | Cc1cc(Nc2nccc(C)n2)cc(-c2cn(C3CCCCC3(C)O)nn2)c1 (single isomer, unassigned) [Example 7.27, 1-methyl-2-(4-{3-methyl-5-[(4-methylpyrimidin-2-yl)amino]phenyl}-1H-1,2,3-triazol-1-yl)cyclohexanol] | 90.4 nM
6 | Cc1cc(Nc2cc(C)c(F)cn2)nc(-c2cn(CC(C)(O)C(C)(C)O)nn2)c1 (stereo not drawn) [Example 21.29, 1-(4-{6-[(5-fluoro-4-methylpyridin-2-yl)amino]-4-methylpyridin-2-yl}-1H-1,2,3-triazol-1-yl)-2,3-dimethylbutane-2,3-diol] | 85.6 nM
7 | Cc1cc(Nc2cc(C(F)(F)F)ccn2)nc(-c2cn(CC3(O)CCOC3)nn2)c1 (single isomer, unassigned) [Example 5.11, 3-{[4-(4-methyl-6-{[4-(trifluoromethyl)pyridin-2-yl]amino}pyridin-2-yl)-1H-1,2,3-triazol-1-yl]methyl}tetrahydrofuran-3-ol] | 21.8 nM
8 | Cc1cc(Nc2nccc(C(F)(F)F)n2)cc(-c2cn(C(C)C(O)CC#N)nn2)c1 (single isomer, unassigned) [Example 4.6, 3-hydroxy-4-[4-(3-methyl-5-{[4-(trifluoromethyl)pyrimidin-2-yl]amino}phenyl)-1H-1,2,3-triazol-1-yl]pentanenitrile] | 45.5 nM
9 | Cc1cc(Nc2nccc(C)n2)cc(-c2cn(C3CCCCC3O)nn2)c1 (single isomer, unassigned) [Example 7.22, 2-(4-{3-methyl-5-[(4-methylpyrimidin-2-yl)amino]phenyl}-1H-1,2,3-triazol-1-yl)cyclohexanol] | 56 nM
10 | Cc1cc(Nc2cc(C(F)(F)F)ccn2)nc(-c2cn(C(C)C(=O)NCC3(c4ccc(F)cc4)CCOCC3)nn2)c1 (stereo not drawn) [Example 1.49, N-{[4-(4-fluorophenyl)tetrahydro-2H-pyran-4-yl]methyl}-2-[4-(4-methyl-6-{[4-(trifluoromethyl)pyridin-2-yl]amino}pyridin-2-yl)-1H-1,2,3-triazol-1-yl]propanamide] | 404 nM
11 | Cc1cc(Nc2cc(C(F)(F)F)ccn2)nc(-c2cn(CCC(=O)O)nn2)c1 [Example 5.9, 3-[4-(4-methyl-6-{[4-(trifluoromethyl)pyridin-2-yl]amino}pyridin-2-yl)-1H-1,2,3-triazol-1-yl]propanoic acid] | 38.1 nM
12 | Cc1cc(Nc2nccc(C(F)(F)F)n2)cc(-n2cc([C@]3(O)CC[C@@H](O)CC3)nn2)c1 [Example 15.17, cis-1-[1-(3-methyl-5-{[4-(trifluoromethyl)pyrimidin-2-yl]amino}phenyl)-1H-1,2,3-triazol-4-yl]cyclohexane-1,4-diol] | 30 nM
13 | Cc1cc(Nc2cc(C(C)F)ccn2)nc(-c2cn(CC(C)(O)C(C)(C)O)nn2)c1 (stereo not drawn) [Example 21.17, 1-[4-(6-{[4-(1-fluoroethyl)pyridin-2-yl]amino}-4-methylpyridin-2-yl)-1H-1,2,3-triazol-1-yl]-2,3-dimethylbutane-2,3-diol] | 23.1 nM
14 | Cc1cc(Nc2ncc(Cl)c(C)n2)cc(-c2cn(CC(C)(O)C(C)(C)O)nn2)c1 (stereo not drawn) [Example 21.11, 1-(4-{3-[(5-chloro-4-methylpyrimidin-2-yl)amino]-5-methylphenyl}-1H-1,2,3-triazol-1-yl)-2,3-dimethylbutane-2,3-diol] | 182 nM
15 | Cc1cc(Nc2cc(C(F)(F)F)ccn2)nc(-c2cn(CC(O)C(=O)O)nn2)c1 (stereo not drawn) [Example 14, 2-Hydroxy-3-(4-(4-methyl-6-((4-(trifluoromethyl)pyridin-2-yl)amino)pyridin-2-yl)-1H-1,2,3-triazol-1-yl)propanoic acid] | 44.9 nM
16 | Cc1cc(Nc2cc(C(F)(F)F)ccn2)nc(-c2cn(C[C@]3(O)C[C@H](C#N)C3)nn2)c1 [Example 4.26, trans-3-hydroxy-3-{[4-(4-methyl-6-{[4-(trifluoromethyl)pyridin-2-yl]amino}pyridin-2-yl)-1H-1,2,3-triazol-1-yl]methyl}cyclobutanecarbonitrile] | 0.7 nM
17 | Cc1cc(Nc2cc(C(F)(F)F)ccn2)nc(-c2cn(-c3ccc(C(N)=O)cc3)nn2)c1 [Example 1.15, 4-[4-(4-methyl-6-{[4-(trifluoromethyl)pyridin-2-yl]amino}pyridin-2-yl)-1H-1,2,3-triazol-1-yl]benzamide] | 15.4 nM
18 | Cc1cc(Nc2cc(C(F)(F)F)ccn2)nc(-c2cn(Cc3nnn[nH]3)nn2)c1 [Example 5.109, 4-methyl-6-[1-(1H-tetrazol-5-ylmethyl)-1H-1,2,3-triazol-4-yl]-N-[4-(trifluoromethyl)pyridin-2-yl]pyridin-2-amine] | 12.6 nM
19 | Cc1cc(Nc2nccc(C(F)(F)F)n2)cc(-c2cn(CC3(O)CCC(C(=O)O)C(C)(C)C3)nn2)c1 (single isomer, unassigned) [Example 3.3, (R or S) 4-hydroxy-2,2-dimethyl-4-{[4-(3-methyl-5-{4-(trifluoromethyl)pyrimidin-2-yl]amino}phenyl)-1H-1,2,3-triazol-1-yl]methyl}cyclohexanecarboxylic acid] | 54.3 nM
20 | COC(=O)C1CCC(n2cc(-c3cc(C)cc(Nc4nccc(C(F)(F)F)n4)c3)nn2)CC1 (mixture of isomers) [Example 5.99, methyl 4-[4-(3-methyl-5-{[4-(trifluoromethyl)pyrimidin-2-yl]amino}phenyl)-1H-1,2,3-triazol-1-yl]cyclohexane-carboxylate] | 430 nM
21 | Cc1cc(Nc2nccc(C(F)F)n2)cc(-c2cn(CC3(C)CNC(=O)O3)nn2)c1 (single isomer, unassigned) [Example 7.31, 5-{[4-(3-{[4-(difluoromethyl)pyrimidin-2-yl]amino}-5-methylphenyl)-1H-1,2,3-triazol-1-yl]methyl}-5-methyl-1,3-oxazolidin-2-one] | 8 nM
22 | COCC(O)Cn1cc(-c2cc(C)cc(Nc3cc(C(F)(F)F)ccn3)n2)nn1 (stereo not drawn) [Example 4.23, 1-methoxy-3-[4-(4-methyl-6-{[4-(trifluoromethyl)pyridin-2-yl]amino}pyridin-2-yl)-1H-1,2,3-triazol-1-yl]propan-2-ol] | 5.4 nM
23 | Cc1cc(Nc2cc(C(F)(F)F)ccn2)nc(-c2cn([C@@H](C)C(N)=O)nn2)c1 [Example 1.24, (2S)-2-[4-(4-methyl-6-{[4-(trifluoromethyl)pyridin-2-yl]amino}pyridin-2-yl)-1H-1,2,3-triazol-1-yl]propanamide] | 14.2 nM
24 | Cc1cc(Nc2nccc(C(F)F)n2)cc(-c2cn(CC(C)(O)C(C)(C)O)nn2)c1 (stereo not drawn) [Example 21.25, 1-[4-(3-{[4-(difluoromethyl)pyrimidin-2-yl]amino}-5-methylphenyl)-1H-1,2,3-triazol-1-yl]-2,3-dimethylbutane-2,3-diol] | 13.6 nM
25 | Cc1cc(Nc2cc(C(F)(F)F)ccn2)nc(-c2cn(C(C)C(=O)N3CCc4ccccc4C3)nn2)c1 (stereo not drawn) [Example 1.28, 6-{1-[2-(3,4-dihydroisoquinolin-2(1H)-yl)-1-methyl-2-oxoethyl]-1H-1,2,3-triazol-4-yl}-4-methyl-N-[4-(trifluoromethyl)pyridin-2-yl]pyridin-2-amine] | 645 nM
26 | Cc1cc(Nc2cc(C(F)(F)F)ccn2)nc(-c2cn(C[C@@H](O)C(=O)O)nn2)c1 [Example 4.20, (2R)-2-hydroxy-3-[4-(4-methyl-6-{[4-(trifluoromethyl)pyridin-2-yl]amino}pyridin-2-yl)-1H-1,2,3-triazol-1-yl]propanoic acid] | 17 nM
27 | Cc1cc(Nc2nccc(C(F)F)n2)cc(-c2cn(CC3(C)CNC(=O)O3)nn2)c1 (single isomer, unassigned) [Example 7.32, 5-{[4-(3-{[4-(difluoromethyl)pyrimidin-2-yl]amino}-5-methylphenyl)-1H-1,2,3-triazol-1-yl]methyl}-5-methyl-1,3-oxazolidin-2-one] | 5 nM
28 | Cc1cc(Nc2cc(C(F)(F)F)ccn2)nc(-c2cn(C3CCC(C(=O)O)CC3)nn2)c1 (mixture of isomers) [Example 5.46, 4-[4-(4-methyl-6-{[4-(trifluoromethyl)pyridin-2-yl]amino}pyridin-2-yl)-1H-1,2,3-triazol-1-yl]cyclohexane-carboxylic acid] | 4.9 nM
29 | Cc1cc(Nc2cc(C(F)(F)F)ccn2)nc(-c2cn(C3CCC(C(N)=O)c4ccccc43)nn2)c1 (stereo not drawn) [Example 1.11, 4-[4-(4-methyl-6-{[4-(trifluoromethyl)pyridin-2-yl]amino}pyridin-2-yl)-1H-1,2,3-triazol-1-yl]-1,2,3,4-tetrahydronaphthalene-1-carboxamide] | 20.3 nM
30 | COc1ccc2[nH]c3c(c2c1)CCN(C(=O)C(C)n1cc(-c2cc(C)cc(Nc4cc(C(F)(F)F)ccn4)n2)nn1)C3 (stereo not drawn) [Example 1.48, 6-{1-[2-(6-methoxy-1,3,4,9-tetrahydro-2H-beta-carbolin-2-yl)-1-methyl-2-oxoethyl]-1H-1,2,3-triazol-4-yl}-4-methyl-N-1.[4-(trifluoromethyl)pyridin-2-yl]pyridin-2-amine] | 257 nM
